How the values were obtained:
[1] = tested on: LOX cells; assay: Apoptosis by Annexin V FITC flow cytometry, LOX; type: cell-based, human; details: 10 μM for 3 days
Procedure: (§1) Compound 1 and other compounds of Tables 1A and 1B were similarly tested for apoptotic effects to represent the inhibitory effects of compounds on interaction between the PDZ domain of the Dishevelled (Dvl) protein and the Fz protein (Wnt receptor). Cell lines H460 and LOX were utilized, with the test compound being applied at 10 μM for 3 days. Cultured cells treated with the test compounds in the culture media were harvested by trypsinization and stained using an Annexin V FITC Apoptosis Detection kit (Oncogene Science, Cambridge, Mass.), according to the manufacturer's protocol. Stained cells were immediately analyzed by flow cytometry (FACScan; Becton-Dickinson, Franklin Lake, N.J.).

[2] = tested on: H460 cells; assay: Apoptosis by Annexin V FITC flow cytometry, H460; type: cell-based, human; details: 10 μM for 3 days
Procedure: as §1

[3] = Assay 2, library 2, control 9.67
[4] = Assay 2, library 2, control 10.24
[5] = Assay 1, library 1, control 10.85
[6] = Assay 1, library 1, control 9.22
[7] = Assay 3, library 3, control 8.81
[8] = Assay 3, library 3, control 7.59

| Structure (SMILES) | apoptosis, % LOX [1, 3] [%] | apoptosis, % H460 [2, 4] [%] | apoptosis, % LOX [1, 5] [%] | apoptosis, % H460 [2, 6] [%] | apoptosis, % LOX [1, 7] [%] | apoptosis, % H460 [2, 8] [%] |
| --- | --- | --- | --- | --- | --- | --- |
| CCCCC(O)c1[nH]c2cc(C)c(C(=O)O)cc2c1-c1ccccc1 (centres unmarked) [Compound 13] | 17.84 | 35.51 |  |  |  |  |
| CCCCC(=O)c1[nH]c2cc(C)c(C(=O)O)cc2c1-c1ccccc1 [Compound 38] | 13.58 | 51.61 |  |  |  |  |
| Cc1cc2[nH]c(C(O)C3CCCCC3)c(CCc3ccccc3)c2cc1C(=O)O (centres unmarked) [Compound 5] |  |  | 27.15 | 24.39 |  |  |
| CCCCCc1c(C(O)CCCC)[nH]c2cc(C)c(C(=O)O)cc12 (centres unmarked) [Compound 10] | 19.08 | 39.64 |  |  |  |  |
| CCCCC(=O)c1[nH]c2cc(C)c(C(=O)O)cc2c1Cc1ccccc1 [Compound 39] | 29.35 | 42.9 |  |  |  |  |
| Cc1cc2[nH]c(C(=O)Cc3ccccc3)c(CCc3ccccc3)c2cc1C(=O)O [Compound 33] |  |  | 15.03 | 12.66 |  |  |
| Cc1cc2[nH]c(C(=O)CC(C)C)c(-c3ccccc3)c2cc1C(=O)O [Compound 43] |  |  |  |  | 20.24 | 34.22 |
| CCCCC(=O)c1[nH]c2cc(C)c(C(=O)O)cc2c1C1CCCCC1 [Compound 37] | 7.49 | 45.05 |  |  |  |  |
| Cc1cc2[nH]c(C(=O)CC3CCCC3)c(CCc3ccccc3)c2cc1C(=O)O [Compound 29] |  |  | 74.11 | 64.1 |  |  |
| CCCCC(=O)c1[nH]c2cc(C)c(C(=O)O)cc2c1CCc1ccccc1 [Compound 26] |  |  | 16.86 | 16.13 |  |  |
| CCCCC(O)c1[nH]c2cc(C)c(C(=O)O)cc2c1C1CCCCC1 (centres unmarked) [Compound 12] | 15.83 | 28.8 |  |  |  |  |
| Cc1cc2[nH]c(C(O)C(C)C)c(-c3ccccc3)c2cc1C(=O)O (centres unmarked) [Compound 20] |  |  |  |  | 11.77 | 28.9 |
| CCCCC(=O)c1[nH]c2cc(C)c(C(=O)O)cc2c1CCCc1ccccc1 [Compound 40] | 16.5 | 23.93 |  |  |  |  |
| Cc1cc2[nH]c(C(=O)CCc3ccccc3)c(CCc3ccccc3)c2cc1C(=O)O [Compound 34] |  |  | 44.73 | 76.59 |  |  |
| Cc1cc2[nH]c(C(=O)C3CCCCC3)c(-c3ccccc3)c2cc1C(=O)O [Compound 47] |  |  |  |  | 73.02 | 49.77 |
| Cc1cc2[nH]c(C(O)CCc3ccccc3)c(-c3ccccc3)c2cc1C(=O)O (centres unmarked) [Compound 24] |  |  |  |  | 26.56 | 26.58 |
| CCC(C)C(=O)c1[nH]c2cc(C)c(C(=O)O)cc2c1-c1ccccc1 (centres unmarked) [Compound 44] |  |  |  |  | 54.13 | 37.38 |
| Cc1cc2[nH]c(C(=O)c3ccccc3)c(CCc3ccccc3)c2cc1C(=O)O [Compound 32] |  |  | 15.36 | 21.13 |  |  |
| CCC(C)C(O)c1[nH]c2cc(C)c(C(=O)O)cc2c1CCc1ccccc1 (centres unmarked) [Compound 3] |  |  | 56.29 | 79.9 |  |  |
| Cc1cc2[nH]c(C(O)CC3CCCC3)c(CCc3ccccc3)c2cc1C(=O)O (centres unmarked) [Compound 4] |  |  | 32.52 | 36.41 |  |  |
| Cc1cc2[nH]c(C(O)CC(C)C)c(-c3ccccc3)c2cc1C(=O)O (centres unmarked) [Compound 18] |  |  |  |  | 9.53 | 21.11 |
| CCCCC(O)c1[nH]c2cc(C)c(C(=O)O)cc2c1CCCc1ccccc1 (centres unmarked) [Compound 15] | 17.57 | 37.4 |  |  |  |  |
| CCCCC(=O)c1[nH]c2cc(C)c(C(=O)O)cc2c1CC(C)C [Compound 36] | 13.51 | 41.48 |  |  |  |  |

| Structure (SMILES) | apoptosis, % LOX [1, 3] [%] | apoptosis, % H460 [2, 4] [%] | apoptosis, % LOX [1, 5] [%] | apoptosis, % H460 [2, 6] [%] | apoptosis, % LOX [1, 7] [%] | apoptosis, % H460 [2, 8] [%] |
| --- | --- | --- | --- | --- | --- | --- |
| Cc1cc2[nH]c(C(O)CCCC(=O)O)c(CCc3ccccc3)c2cc1C(=O)O (centres unmarked) [Compound 6] |  |  | 9.22 | 8.62 |  |  |
| Cc1cc2[nH]c(C(O)CC(C)C)c(CCc3ccccc3)c2cc1C(=O)O (centres unmarked) [Compound 2] |  |  | 36.32 | 34.21 |  |  |
| CCCCC(O)c1[nH]c2cc(C)c(C(=O)O)cc2c1CC(C)C (centres unmarked) [Compound 11] | 14.83 | 24.48 |  |  |  |  |
| CCCCC(O)c1[nH]c2cc(C)c(C(=O)O)cc2c1CCCO (centres unmarked) [Compound 16] | 14.5 | 15.7 |  |  |  |  |
| Cc1cc2[nH]c(C(=O)C(C)C)c(-c3ccccc3)c2cc1C(=O)O [Compound 45] |  |  |  |  | 86.71 | 96.96 |
| Cc1cc2[nH]c(C(=O)C3CCCCC3)c(CCc3ccccc3)c2cc1C(=O)O [Compound 30] |  |  | 55.76 | 78.07 |  |  |
| CCC(C)C(=O)c1[nH]c2cc(C)c(C(=O)O)cc2c1CCc1ccccc1 (centres unmarked) [Compound 28] |  |  | 38.53 | 58.76 |  |  |
| Cc1cc2[nH]c(C(=O)CC3CCCC3)c(-c3ccccc3)c2cc1C(=O)O [Compound 46] |  |  |  |  | 38.6 | 39.06 |
| CCCCCc1c(C(=O)CCCC)[nH]c2cc(C)c(C(=O)O)cc12 [Compound 35] | 23.23 | 34.73 |  |  |  |  |
| CCCCC(O)c1[nH]c2cc(C)c(C(=O)O)cc2c1CCCC(=O)O (centres unmarked) [Compound 17] | 15.62 | 18.93 |  |  |  |  |
| Cc1cc2[nH]c(C(=O)CCc3ccccc3)c(-c3ccccc3)c2cc1C(=O)O [Compound 49] |  |  |  |  | 96.34 | 82.53 |
| CCCCC(=O)c1[nH]c2cc(C)c(C(=O)O)cc2c1CCCO [Compound 41] | 12.69 | 19.96 |  |  |  |  |
| Cc1cc2[nH]c(C(=O)CC(C)(C)C)c(-c3ccccc3)c2cc1C(=O)O [Compound 48] |  |  |  |  | 15.14 | 24.48 |
| Cc1cc2[nH]c(C(O)C3CCCCC3)c(-c3ccccc3)c2cc1C(=O)O (centres unmarked) [Compound 22] |  |  |  |  | 15.47 | 16.22 |
| CCC(C)C(O)c1[nH]c2cc(C)c(C(=O)O)cc2c1-c1ccccc1 (centres unmarked) [Compound 19] |  |  |  |  | 47.62 | 44.15 |
| Cc1cc2[nH]c(C(=O)CCCC(=O)O)c(CCc3ccccc3)c2cc1C(=O)O [Compound 31] |  |  | 12.06 | 9.07 |  |  |
| Cc1cc2[nH]c(C(=O)CCCc3ccccc3)c(-c3ccccc3)c2cc1C(=O)O [Compound 50] |  |  |  |  | 72.47 | 41.75 |
| CCCCC(=O)c1[nH]c2cc(C)c(C(=O)O)cc2c1CCCC(=O)O [Compound 42] | 15.22 | 49.41 |  |  |  |  |
| CCCCC(=O)c1[nH]c2cc(C)c(C(=O)OC)cc2c1CCc1ccccc1 [Compound 7] |  |  | 17.96 | 13.92 |  |  |
| CCCCC(O)c1[nH]c2cc(C)c(C(=O)O)cc2c1Cc1ccccc1 (centres unmarked) [Compound 14] | 11.88 | 24.26 |  |  |  |  |
| Cc1cc2[nH]c(C(O)CC(C)(C)C)c(-c3ccccc3)c2cc1C(=O)O (centres unmarked) [Compound 23] |  |  |  |  | 11.34 | 12.09 |
| Cc1cc2[nH]c(C(O)CC3CCCC3)c(-c3ccccc3)c2cc1C(=O)O (centres unmarked) [Compound 21] |  |  |  |  | 19.99 | 31.22 |
| Cc1cc2[nH]c(C(=O)CC(C)C)c(CCc3ccccc3)c2cc1C(=O)O [Compound 27] |  |  | 18.5 | 16.91 |  |  |
